From patent publication US7449461B2, “Benzathiazol-acetamides” (Hoffmann-La Roche Inc., priority 2004, dated 2008) come the findings set out here.

Data set [1] addresses T1, human adenosine A2A receptor (Homo sapiens, UniProt P29274).
T1 construct: expressed in transfected cells; host or cells: CHO cells, Semliki Forest virus expression system; washed membrane preparation
The experiment in a line: [3H]-SCH-58261 binding assay on human adenosine A2A receptor membranes (SPA). Particulars: recombinant receptor expressed in CHO cells, radioligand [3H]-SCH-58261 1 nM, Ki by Cheng-Prussoff equation from IC50; for Ki: read-out: hA2 (pKi) (converted). Here is the method: Human Adenosine A2A Receptor
The human adenosine A2A receptor was recombinantly expressed in Chinese hamster ovary (CHO) cells using the semliki forest virus expression system. Cells were harvested, washed twice by centrifugation, homogenized and again washed by centrifugation. The final washed membrane pellet was suspended in a Tris (50 mM) buffer containing 120 mM NaCl, 5 mM KCl, 2 mM CaCl2 and 10 mM MgCl2 (pH 7.4) (buffer A). The [^3H]-SCH-58261 (Dionisotti et al., 1997, Br J Pharmacol 121, 353; 1 nM) binding assay was carried out in 96-well plates in the presence of 2.5 μg of membrane protein, 0.5 mg of Ysi-poly-1-lysine SPA beads and 0.1 U adenosine deaminase in a final volume of 200 μl of buffer A. Non-specific binding was defined using xanthine amine congener (XAC; 2 μM). Compounds were tested at 10 concentrations from 10 μM-0.3 nM. All assays were conducted in duplicate and repeated at least two times. Assay plates were incubated for 1 hour at room temperature before centrifugation and then bound ligand determined using a Packard Topcount scintillation counter. IC50 values were calculated using a non-linear curve fitting program and Ki values calculated using the Cheng-Prussoff equation.

T1 sequence (P29274 whole entry): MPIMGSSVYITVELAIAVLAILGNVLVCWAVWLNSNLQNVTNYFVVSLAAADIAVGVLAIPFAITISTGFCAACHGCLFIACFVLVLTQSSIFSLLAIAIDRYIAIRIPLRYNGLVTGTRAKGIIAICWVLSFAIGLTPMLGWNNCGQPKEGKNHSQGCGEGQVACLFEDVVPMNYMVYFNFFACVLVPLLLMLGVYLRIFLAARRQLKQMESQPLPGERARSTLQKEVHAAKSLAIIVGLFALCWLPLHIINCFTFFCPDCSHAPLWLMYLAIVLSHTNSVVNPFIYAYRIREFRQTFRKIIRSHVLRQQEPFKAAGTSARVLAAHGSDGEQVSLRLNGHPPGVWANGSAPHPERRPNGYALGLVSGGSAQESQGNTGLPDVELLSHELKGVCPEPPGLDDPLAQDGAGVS

Regarding `COc1ccc(N2CCOCC2)c2sc(NC(=O)C(C)C34CCC(CC3)O4)nc12` (racemic) [Example 7, (rac)-N-(4-Methoxy-7-morpholin-4-yl-benzothiazol-2-yl)-2-(7-oxa-bicyclo[2.2.1]hept-1-yl)-propionamide], the melting point (as a rule, the temperature, or range, at which the solid turns liquid) lay within 195 to 197 °C. For the same molecule, the Ki in data set [1] was 20 nM.
Molecule `COc1ccc(N2CCOCC2)c2sc(NC(=O)C[C@H]3CC[C@@H](OC(C)=O)C3)nc12` (single isomer, unassigned) [Example 1, (cis)-2-(3-Acetoxy-cyclopentyl)-N-(4-methoxy-7-morpholin-4-yl-benzothiazol-2-yl)-acetamide] came in with a melting point of 171 to 172 °C. In addition, in data set [1], the Ki is 10 nM.
Molecule `COc1ccc(N2CCOCC2)c2sc(NC(=O)C[C@H]3CC[C@@H](OC(C)=O)C3)nc12` (single isomer, unassigned) [Example 2, (cis)-2-(3-Acetoxy-cyclopentyl)-N-(4-methoxy-7-morpholin-4-yl-benzothiazol-2-yl)-acetamide] had a melting point of 172 to 173 °C. The Ki in data set [1] was 6.31 nM.
Taken in the same sequence, the figures for `COc1ccc(N2CCOCC2)c2sc(NC(=O)C[C@H]3CC[C@@H](O)C3)nc12` (single isomer, unassigned) [Example 3, (−)-(cis)-2-(3-Hydroxy-cyclopentyl)-N-(4-methoxy-7-morpholin-4-yl-benzothiazol-2-yl)-acetamide] were 168 to 171 °C and 6.31 nM.
On to `COc1ccc(N2CCOCC2)c2sc(NC(=O)C[C@H]3CC[C@@H](O)C3)nc12` (single isomer, unassigned) [Example 4, (+)-(cis)-2-(3-Hydroxy-cyclopentyl)-N-(4-methoxy-7-morpholin-4-yl-benzothiazol-2-yl)-acetamide], for which the melting point lay in the range of 167 to 170 °C. In data set [1], the “hA2 (pKi)” value is 8.2.
For the molecule `COc1ccc(N2CCOCC2)c2sc(NC(=O)C[C@H]3CC[C@@H](O)CC3)nc12` [Example 5, (cis)-2-(4-Hydroxy-cyclohexyl)-N-(4-methoxy-7-morpholin-4-yl-benzothiazol-2-yl)-acetamide], the melting point lay in the range of 212 to 216 °C. Also, the Ki in data set [1] was 6.31 nM.
Consider `COc1ccc(N2CCOCC2)c2sc(NC(=O)C[C@H]3CC[C@H](O)CC3)nc12` [Example 6, (trans)-2-(4-Hydroxy-cyclohexyl)-N-(4-methoxy-7-morpholin-4-yl-benzothiazol-2-yl)-acetamide], for which the melting point is 190 to 192 °C. Further, the Ki in data set [1] was 3.16 nM.
